Test results: paper PMC9926234, “Iterative computational design and crystallographic screening identifies potent inhibitors targeting the Nsp3 macrodomain of SARS-CoV-2” (Proceedings of the National Academy of Sciences of the …, 2023)
Values joined by “and” are separate entries in the source; they are usually repeats but may differ in a detail not shown here. Equal values may be shown once. Read-outs that look alike come from different tables or passages of the source.

Key:
[1] = molecular target: T1, SARS-CoV-2 NSP3 Mac1 (Severe acute respiratory syndrome coronavirus 2, UniProt P0DTD1); assay type: binding; details: for HIT*: overall hit flag: binding in crystallographic soaking or the HTRF-based binding assay; for Refined occupancy: ligand occupancy after refinement (phenix.refine)
[2] = molecular target: T1, SARS-CoV-2 NSP3 Mac1; assay type: binding; parameters: contains a conserved macrodomain enzyme (Mac1); details: for Spearman est (compound concentration vs apparent Tm): DSF dose responsiveness, 1 µM nsp3 mac1, adj p given
Procedure: DSF and associated compound handling was performed as described ([12]), with 5 µM dye “Fluorescent Yellow” (Jacquard iDye Cat #JID1405) used in place of SYPRO Orange. Compounds were tested in triplicate, at seven concentrations in two-fold serial dilutions, at a top concentration of either 1,000 or 100 μM. To minimize experimental noise arising from plate location-based effects on Tma, all concentrations and replicates for each compound were tested within a single region of the microtiter plates, including a DMSO-only control from which ΔTmas were calculated for that compound. […] For each compound, to determine statistical significance of the dose responsive thermal shift, the Spearman’s coefficient was calculated between compound concentration and ΔTma.

[3] = maximal thermal upshift vs DMSO control
[4] = PanDDA event map, 1 minus background density correction, crystal soaking of Mac1

Compound	HIT* [1]	DSF max dTma [2, 3] [°C]	Spearman est (compound concentration vs apparent Tm) [2]	DSF max dTma ([2]; maximal thermal upshift)	further results
OCc1cn(C2CCCN(c3ncnc4[nH]ccc34)C2)nn1 (stereo not shown) [Z7864]	Y	0.32			
Cc1nc(Cn2cnc3c(N)nc(N)nc32)cs1 [Z8569]	Y	0.53			
Nc1nc(N)c2ncn(Cc3csc(Cl)n3)c2n1 [Z8572]	Y	1.1			
Nc1nc(N)c2ncn(Cc3csc(C4CC4)n3)c2n1 [Z8585]	Y	1.3			
O=C1CCCN1CCSc1ncnc2[nH]cnc12 [Z9920]	Y	0.95			
Cc1ccc(-c2nc(Cn3cnc4c(N)nc(N)nc43)cs2)o1 [Z4718398580]	Y	0.71	0.74		1-BDC ([1]; PanDDA 1-BDC value of the event, crystal soak, compound concentration 100 mM, per dataset): 0.28; 1-BDC ([1]; PanDDA event map, 1-BDC of the hit dataset, crystal soak, compound concentration 100 mM, listed as Z8580): 0.35 and 0.45; 1-BDC [1, 4]: 0.45; PanDDA hit? ([1]; crystal soak, compound concentration 100 mM, per dataset): TRUE; Modeled? ([1]; ligand modeled from this dataset, crystal soak, compound concentration 100 mM): TRUE; Refined occupancy ([1]; crystal soaking of Mac1): 60
N#Cc1ccc(OCCn2cnc3c(N)ncnc32)cc1 [ZINC000043461211]	Y	0.45	0.26		1-BDC ([1]; PanDDA 1-BDC (background density correction) of the event, crystal soak 100 mM, PanDDA run dmso_34): 0.31; 1-BDC [1, 4]: 0.31; PanDDA hit? ([1]; crystal soak, compound concentration 100 mM, PanDDA run dmso_34, series docking_lead-like_1): TRUE; Modeled? ([1]; ligand modeled in the crystal structure, crystal soak 100 mM, PanDDA run dmso_34): TRUE; Refined occupancy ([1]; crystal soaking of Mac1): 62
Clc1cc2c(N3CCCC(c4nnc[nH]4)C3)ncnc2[nH]1 (stereo not shown) [ZINC001187497156]			0.32		
CNS(=O)(=O)c1cccc(-c2ncnc3[nH]c4ccccc4c23)c1 [ZINC001240776402]			−0.29	0.27 ˚C	
O=C1CCCN1Cc1cccc(N2C(=O)N[C@@H](CO)C2=O)c1 [ZINC001320848619]			0.18	0.2 ˚C	
O=C(c1ncnc2[nH]ccc12)N1CC(n2cncn2)C1 [ZINC001327823432]			0.54	0.66 ˚C	
O=C(c1ncnc2[nH]ccc12)N1CC(n2ccnn2)C1 [ZINC001335091110]			−0.36	0.04 ˚C	
CN(Cc1ncc(Cl)n1C)c1ncnc(N)n1 [ZINC001337833291]			0.82		
CN(Cc1nnc2c(=O)[nH]ccn12)C(=O)COC1CC1 [ZINC001364630288]			0.73		
Nc1ncc(S(=O)(=O)N2CCC2c2cccc(F)c2)cn1 (stereo not shown) [ZINC001365141527]			−0.66	0 ˚C	
CC(C(=O)N1CC(C(N)=O)C1)n1cnc2c(N)ncnc21 (stereo not shown) [ZINC001434309614]			0.08	0.26 ˚C	
O=c1[nH]ccn2c(CSc3nc4ccccc4s3)nnc12 [ZINC001458791015]			0.66		
O=c1[nH]nc(C2CCCN(c3ncnc4[nH]c(Cl)cc34)C2)o1 (stereo not shown) [ZINC001559178387]			−0.22		
Nc1ncnc(SCCc2cccc(Cl)c2Cl)n1 [ZINC001641481086]			0.6		
Cc1cc(C)nc(CSc2nnc3c(=O)[nH]c4ccccc4n23)c1 [ZINC001652467570]			0.44		
